Assay results reported in ChEMBL document CHEMBL1201862, “PubChem BioAssay data set” (2004).
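Each compound was tested at five concentrations against cells in 96-well plates for 48 hours. The concentration for 50% growth inhibition is given as GI50.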 The source made the active and inactive calls. No stated cut-off is given here; in the data, active = GI50 up to about 1.1 µM and inactive = higher. *1 amine or outer side, *2 acyl side, *3 side chain or, on linkers, in order; H or OH if unused. Bridge positions count the residues as written; N and C are the ends. Where a SMILES comes first, the peptide text is derived from it. Square brackets hold non-standard residues; d marks the D form. Bridges are numbered along the chain shown (N, C = ends). Peptide text beside a SMILES is read from it. I, II: the chains in the order shown. [ ]: non-standard residue; d: D form. The star is where a group is joined. * marks the point of attachment. Quinoxaline2carbonyl = O=C(c1cnc2ccccc2n1)*; X56 = CC(C)C(C)C(C(=O)[*:2])N(C)[*:1]; Picolinoyl(3-OH) = O=C(c1ncccc1O)*; NMePhg = CN[CH](C(=O)O)c1ccccc1; Hyp = O=C(O)[CH]1C[CH](O)CN1; NMeV = CN[CH](C(=O)O)C(C)C; NMeC = CN[CH](CS)C(=O)O; Sar = CNCC(=O)O

How the values were obtained:
Test in all cases: DTP human tumour cell line panel, 48 h
[1] = test system: A549
[2] = test system: NCI-H460
[3] = test system: EKVX
[4] = test system: SNB-19
[5] = test system: UACC-62
[6] = test system: KM12
[7] = test system: UACC-257
[8] = test system: HCT-15
[9] = test system: OVCAR-4
[10] = test system: SK-MEL-2
[11] = test system: NCI-H226
[12] = test system: U-251
[13] = test system: SF-295
[14] = test system: CCRF-CEM
[15] = test system: HOP-92
[16] = test system: NCI-H522
[17] = test system: RPMI-8226
[18] = test system: OVCAR-8
[19] = test system: LOX IMVI
[20] = test system: UO-31

Measured: GI50

COc1ccc2[nH]cc(/C=C(/C)c3ccncc3)c2c1
1.19 µM: [8]
inactive: [1] 8.36 µM | [2] 3.57 µM | [3] 15.6 µM | [4] 50.6 µM | [5] 5.01 µM | [6] 2.44 µM | [7] 7.48 µM | [9] 65 µM | [10] 5.38 µM | [11] 22.6 µM | [12] 5.3 µM | [13] 6.35 µM | [14] 3.13 µM | [15] 6.47 µM | [16] 2.63 µM | [17] 5.89 µM | [18] 16 µM | [19] 6.28 µM | [20] 23.2 µM

COC1/C=C\C=C(/C)C(=O)NC2=CC(=O)C=C(C2=O)C(OC)C(C)CC(OC)C(OC)C(C)/C=C(/C)C1OC(N)=O (stereo not given)
3.38 µM: [8]
active: [5] 0.76 µM | [14] 0.278 µM | [16] 0.231 µM | [17] 0.807 µM
inactive: [1] 16.7 µM | [2] 11.5 µM | [3] 1.97 µM | [4] 14.1 µM | [6] 5.7 µM | [7] 1.37 µM | [9] 8.26 µM | [10] 2.31 µM | [11] 21.8 µM | [12] 12.7 µM | [13] 20.6 µM | [15] 2.04 µM | [18] 1.65 µM | [19] 3.19 µM | [20] 16.4 µM

O=C1/C(=C/c2ccc(Cl)cc2)N=C(c2ccccc2)N1/N=C/c1ccccc1O
inactive: [1] 19.2 µM | [2] 18 µM | [3] 4.66 µM | [4] > 100 µM | [5] 13.9 µM | [6] 12.9 µM | [7] > 100 µM | [9] 4.57 µM | [10] 17.1 µM | [11] 19.2 µM | [12] 5.27 µM | [13] 11.9 µM | [14] 2.11 µM | [15] 11.5 µM | [16] 13.4 µM | [17] 6.89 µM | [18] 5.51 µM | [19] 13.2 µM | [20] 11.6 µM
30.9 µM: [8]

CC1NC(=O)C(NC(=O)c2cnc3ccccc3n2)COC(=O)C(C(C)C)N(C)C(=O)C2CSSCC(C(=O)N(C)C(C(C)C)C(=O)OCC(NC(=O)c3cnc4ccccc4n3)C(=O)NC(C)C(=O)N2C)N(C)C1=O (stereo not given) (I: Quinoxaline2carbonyl-SA[NMeC][NMeV] / II: Quinoxaline2carbonyl-SA[NMeC][NMeV]; ester I:1-II:C, I:C-II:1; disulfide I:3-II:3; configuration not given here)
< 0.01 µM: [8]
active: [1] < 0.01 µM | [2] < 0.01 µM | [3] < 0.01 µM | [4] < 0.01 µM | [5] < 0.01 µM | [6] < 0.01 µM | [7] < 0.01 µM | [9] < 0.01 µM | [10] < 0.01 µM | [11] < 0.01 µM | [12] < 0.01 µM | [13] < 0.01 µM | [14] < 0.01 µM | [15] < 0.01 µM | [16] < 0.01 µM | [17] < 0.01 µM | [18] < 0.01 µM | [19] < 0.01 µM | [20] < 0.01 µM

CC(C)CC1NC(=O)C(NC(=O)c2ncccc2O)C(C)OC(=O)C(c2ccccc2)N(C)C(=O)C(C)NC(=O)C(C(C)C(C)C)N(C)C(=O)CN(C)C(=O)C2CC(O)CN2C1=O (stereo not given) ({Picolinoyl(3-OH)}-TL[Hyp][Sar][X56]A[NMePhg]; ester 1-C; configuration not given here)
105 µM: [8]
inactive: [1] 52.6 µM | [2] 12.3 µM | [3] 10.1 µM | [4] 115 µM | [5] 45.1 µM | [6] 80.4 µM | [7] 58.2 µM | [9] 66.5 µM | [10] 38.7 µM | [11] 71.1 µM | [12] 40.8 µM | [13] 85.7 µM | [14] 60.5 µM | [15] 74.1 µM | [16] 124 µM | [17] 35.8 µM | [18] 15.7 µM | [19] > 125 µM | [20] > 85.5 µM
